The values below come from patent US9493782B2, “Inducible promoter sequences for regulated expression and methods of use” (PIONEER HI-BRED INTERNATIONAL INC, priority 2012, dated 2016).

The test system of assay [1] is ZmCAS1 transcript. In words: Northern blot of maize callus, leaf and anther RNA treated with CBSU, ZmCAS1 probe. Particulars: CBSU-treated tissues; FIG. 3.
Assay [2] concerns truncated 1.0 kb ZmCAS1 promoter driving GUS reporter. Kind of assay: GUS staining (X-Gluc) of maize callus events transformed with PHP16974. It is filed as cell-based. The note with it: seven PHP16974 callus events, 100 mg/liter CBSU, room temperature; FIG. 4B.
Assay [3] has as its system 1.7 kb ZmCAS1 promoter driving GUS reporter. In words: GUS expression in leaf punches of maize plants transformed with PHP16975. It is filed as in vivo. The note with it: 3 PHP16975 plants, about 5 leaf stage, 2 days after watering with 30 mg 2-CBSU; FIG. 5. As to the method:
Plants were also regenerated from callus events containing PHP16975 and grown in the greenhouse to approximately the 5 leaf stage. At this stage of development, leaf punches from plants regenerated from the 3 bialophos-resistant events shown in FIG. 5 were collected pre- (C) and post-watering (S) with 30 mg of 2-CBSU to examine GUS expression in leaf in response to application of the safener.

Assay [4] has the same test system. Kind of assay: GUS staining (X-Gluc) of maize callus events transformed with PHP16975. It is filed as cell-based. Particulars: room temperature, 18 hours, FIG. 4A. The source says: Agrobacterium-mediated transformation of immature embryos was used to generate integrated copies of PHP16974 (SEQ ID NO:11; ZmCAS1HindIII Pro:GUS/35SPAT) comprising the 1.0 kb ZmCAS1 promoter (SEQ ID NO:9), PHP16975 (SEQ ID NO:12, ZmCAS1BamPro:GUS/35SPAT) comprising the 1.7 kb ZmCAS1 promoter (SEQ ID NO:10) and PHP16972 (SEQ ID NO:13, ZmCAS1HindIII Pro:MS45/35SPAT) comprising the 1.0 kb ZmCAS1 promoter or PHP16973 (SEQ ID NO:14, ZmCAS1BamPro:MS45/35SPAT:) comprising the 1.7 kb ZmCAS1 promoter.
To determine whether the 1.7 kb or the 1.0 kb ZmCAS1 promoter from maize could direct induced expression of the GUS reporter, three bialophos-resistant callus events were placed onto maintenance media and maintenance media containing increasing amounts of the safener CBSU-2 for at room temperature for 18 hours, removed and stained with X-Gluc to detect GUS activity.

For assay [5], the system named is ZmCAS1 transcript. In words: Northern blot of maize anther RNA from CBSU-treated plants, ZmCAS1 probe. It is filed as in vivo. The note with it: FIG. 2. Here is the method: (§1) Wild type maize plants were grown to the meiosis stage of microspore development. Plants were watered with 30 mg 2-CBSU and allowed to develop to the quartet and early vacuolate stage of microspore development. PolyA+ anther RNA was isolated from wild type control and CBSU treated plants and stored. A cDNA library was constructed from mRNAs isolated from CBSU-treated plants, arrayed onto nylon filters and stored. A cDNA subtraction library was generated using the Clontech PCR-Select cDNA Subtraction Kit (#K1804-1) following the manufacturer's instructions to enrich for CBSU-specific transcripts. Using this approach anther PolyA+ mRNA from wild-type plants was used to enrich for transcripts found in the anther PolyA+ mRNA from CBSU treated plants. […]
(§2) To determine whether the ZmCAS1 cDNA was 1) induced in maize anthers by CBSU-treatment and 2) reduced or absent in tapetum and microspore-ablated maize anthers from CBSU-treated 5126:DAM plants, a 477 bp ZmCAS1c-1 DNA fragment (SEQ ID NO:1), as well as DNA fragments from ZmMS45, Zm5126, ZmActin, and ZmUbiquitin (Cigan et al. 2001. […] MS45 and 5126 transcripts were easily detected in anther RNAs from male-fertile plants but absent in anther RNAs from male-sterile plants (FIG. 2) further supporting the observation that these RNAs are localized to the maize tapetum (Cigan et al. 2001. Sex. Plant Reprod. 14, 135-142).

The test system of another assay is IN2-2 transcript. Kind of assay: Northern blot of maize anther RNA from CBSU-treated plants, IN2-2 probe. It is filed as in vivo. The note with it: CBSU-treated male-fertile and male-sterile plants; not detectable in untreated controls; FIG. 2. As to the method:
as §1, §2

Assay [6] has as its system 1.0 kb ZmCAS1 promoter driving MS45. In words: Northern analysis of MS45 mRNA in ms45/ms45 maize callus transformed with PHP16972. The format is cell-based. Particulars: five PHP16972 ms45/ms45 callus events, 100 mg/liter CBSU, room temperature, 18 hours; FIG. 6. The source says: T-DNA vectors PHP16972 (SEQ ID NO:13, ZmCAS1HindIII Pro: MS45/35S:PAT) and PHP16973 (SEQ ID NO: 14, ZmCAS1 BamPro:MS45/35S:PAT) were used to transform maize callus which was generated to contain a segregating population of MS45/ms45 heterozygous and ms45/ms45 homozygous mutant plants. In order to detect MS45 RNA or protein expression under the control of the 1.0 or 1.7 kb ZmCAS promoter in maize anthers, plants containing a naturally occurring mutation in the maize MS45 gene which results in loss of MS45 RNA and protein were used for these studies. Pollen from MS45/ms45 plants were used to fertilize male-sterile ms45/ms45 plants for the purpose of generating embryos which would be ms45/ms45 as described in Cigan et al 2001. […] Five random bialophos-resistant callus events containing integrated copies of PHP16972 were placed onto maintenance media (FIG. 5, (−)) and maintenance media containing 100 mg/liter safener CBSU-2 (FIG. 5 (+)) at room temperature for 18 hours, removed and PolyA+ RNA prepared and used for RNA analysis as described (Cigan et al. 2001. Sex. Plant Reprod. 14, 135-142) using the ZmMS45 and ZmActin probes for hybridization analysis. […] A very low signal was observed when callus was grown in the absence of CBSU. Actin was used as a control probe to show nearly equivalent RNA levels were present in all samples. […]

In assay [7] the test system is 1.7 kb ZmCAS1 promoter driving MS45. Kind of assay: Western analysis of MS45 protein in ms45/ms45 maize plants transformed with PHP16973. It is filed as in vivo. Particulars: PHP16973 plants watered with 30 mg CBSU at meiosis stage, collected 2 days later.
Assay [8] concerns truncated 1.0 kb ZmCAS1 promoter driving GUS reporter. In words: GUS staining (X-Gluc) of rice callus events transformed with PHP16974. Particulars: four PHP16974 events, 100 mg/liter CBSU, 24 hours; FIG. 9. It is filed as cell-based, Oryza sativa cv. Kitaake. The source says: To determine whether the ZmCAS1 promoter could conditionally regulate expression in response to safener treatment or heat treatment in plant species other than maize, Agrobacterium-mediated transformation was used to generate integrated copies of PHP16974 (ZmCAS1HindIII Pro:GUS) comprising the truncated 1.0 kb ZmCAS1 promoter for studies in rice. Scutellum from 10-14 day old germinating seeds (Oryza sativa cv. Kitaake) was used for rice transformation experiment (Toki. 1997, PI Mol. Biol Reporter 15:16-21). Bialophos-resistant callus events containing PHP16974 were selected and screened for their ability to respond to safener application. Four independent bialophos-resistant events were grown on maintenance media or maintenance media containing 100 mg/liter CBSU for 24 hours, removed and stained with X-Gluc. […] PHP16974 bialophos-resistant events were regenerated into plants. Leaf tissue was collected from these plants and used for DNA hybridization analyses to identify single-copy PHP16974 insertions. These plants were allowed to set selfed seed and were used for subsequent studies to monitor GUS expression under the transcriptional control of the ZmCAS1 promoter. Sixteen seed were selected from 2 single-copy PHP16974 events were sterilized, grown on hormone-free media at 28° C. or 37° C. for 48 hours and allowed to germinate. […]

As for `NC(=O)NS(=O)(=O)c1ccccc1Cl` [CBSU, N-(aminocarbonyl)-2-chlorobenzenesulfonamide], the “ZmCAS1 hybridization in mRNAs from callus, leaf and anther” value in the assay on ZmCAS1 transcript [1] is reported as “strong hybridization”. Further, the “GUS expression in callus” value in assay [2] is listed as “inducible GUS expression”; in [4] (10 mg/l CBSU), “low levels of GUS expression”; in [4] (100 mg/l CBSU), “strong GUS expression”. Moreover, in assay [3], the “GUS expression in leaf punches” value is given as “strong GUS expression”. Also, the “ZmCAS1 hybridization signal in anther mRNA” value in the assay on ZmCAS1 transcript [5] (male-fertile plants watered with 30 mg 2-CBSU (+, F)) is “strong hybridization signals”; with ZmCAS1 transcript [5] (male-sterile 5126:DAM plants, CBSU-treated (+, S)), “reduced ZmCAS1 signal”. Moreover, the “IN2-2 hybridization signal in anther mRNA” value with IN2-2 transcript was “strong hybridization signals”. Moreover, the “MS45 mRNA hybridization signal in callus” value in assay [6] is “strong induction”. In addition, the “MS45 protein in leaf extracts” value in [7] (FIG. 7) is reported as “increased steady-state levels of the MS45 protein”. For the same compound, the “MS45 protein in anther extracts” value in assay [7] (FIG. 8) is “Increased MS45 protein”. In [8], the “GUS expression in rice callus” value is recorded as “strong GUS expression”.
